Experimental data as given in US4731451A, “N-((2-oxo-3(2H)benzothiazolyl)methyl)-2-chloroacetanilides” (Monsanto Company, priority 1980, dated 1988).

Legend:
Type in all cases: in vivo
[1] = tested on: Smartweed; test: Pre-emergent herbicidal activity (Table II); details: 2-3 weeks
How it was run: (§1)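 Pans of top soil were seeded, then topped with soil thoroughly mixed with the test compound; plants grew in the greenhouse with watering from below. After approximately 2-3 weeks, injury to each species was assessed.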

[2] = tested on: Barnyardgrass; test: Pre-emergent herbicidal activity (Table II); details: 2-3 weeks
How it was run: as §1

[3] = tested on: Downy Brome; test: Pre-emergent herbicidal activity (Table II); details: 2-3 weeks
How it was run: as §1

[4] = tested on: Quackgrass; test: Pre-emergent herbicidal activity (Table II); details: 2-3 weeks
How it was run: as §1

[5] = tested on: Johnsongrass; test: Pre-emergent herbicidal activity (Table II); details: 2-3 weeks
How it was run: as §1

[6] = tested on: Yellow Nutsedge; test: Pre-emergent herbicidal activity (Table II); details: 2-3 weeks
How it was run: as §1

[7] = tested on: Velvetleaf; test: Pre-emergent herbicidal activity (Table II); details: 2-3 weeks
How it was run: as §1

[8] = tested on: Canada Thistle; test: Pre-emergent herbicidal activity (Table II); details: 2-3 weeks
How it was run: as §1

[9] = tested on: Cocklebur; test: Pre-emergent herbicidal activity (Table II); details: 2-3 weeks
How it was run: as §1

[10] = tested on: Morningglory; test: Pre-emergent herbicidal activity (Table II); details: 2-3 weeks
How it was run: as §1

[11] = tested on: Lambsquarters; test: Pre-emergent herbicidal activity (Table II); details: 2-3 weeks
How it was run: as §1

[12] = tested on: Crabgrass; test: Pre-emergent herbicidal activity (Table III)
How it was run: (§2)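 Topsoil is compacted in pans and seeded. Cover soil is blended with a known quantity of active ingredient and spread over the seeds. Pans go to a greenhouse bench with bottom watering. After approximately 2-3 weeks, injury is rated on a fixed scale.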

[13] = tested on: Smartweed; test: Pre-emergent herbicidal activity (Table III)
How it was run: as §2

[14] = tested on: Panicum; test: Pre-emergent herbicidal activity (Table III)
How it was run: as §2

[15] = tested on: Barnyardgrass; test: Pre-emergent herbicidal activity (Table III)
How it was run: as §2

[16] = tested on: Sorghum; test: Pre-emergent herbicidal activity (Table III)
How it was run: as §2

[17] = tested on: Downy Brome; test: Pre-emergent herbicidal activity (Table III)
How it was run: as §2

[18] = tested on: Rice; test: Pre-emergent herbicidal activity (Table III)
How it was run: as §2

[19] = tested on: Hemp Sesbania; test: Pre-emergent herbicidal activity (Table III)
How it was run: as §2

[20] = tested on: Soybean; test: Pre-emergent herbicidal activity (Table III)
How it was run: as §2

[21] = tested on: Velvetleaf; test: Pre-emergent herbicidal activity (Table III)
How it was run: as §2

[22] = tested on: Cocklebur; test: Pre-emergent herbicidal activity (Table III)
How it was run: as §2

[23] = tested on: Wheat; test: Pre-emergent herbicidal activity (Table III)
How it was run: as §2

[24] = tested on: Morningglory; test: Pre-emergent herbicidal activity (Table III)
How it was run: as §2

[25] = tested on: Sugarbeet; test: Pre-emergent herbicidal activity (Table III)
How it was run: as §2

[26] = tested on: Lambsquarters; test: Pre-emergent herbicidal activity (Table III)
How it was run: as §2

[27] = tested on: Wild Buckwheat; test: Pre-emergent herbicidal activity (Table III)
How it was run: as §2

Measured: Herbicidal rating
Note: ranges in brackets are in %.

N--[(2-oxo-3(2H)--benzothiazolyl)methyl]-N--(2-ethyl-6-methyl-1-cyclohexen-1-yl)-2-chloro-acetamide, mixed with its -N--[(2-oxo-3(2H)--benzothiazolyl)methyl]-N--(2-methyl-6-ethyl-1-cyclohexen-1-yl)-2-chloroacetamide [Example 4]
2 (50-74): [8]; 11.2 kg/ha | [12]; 0.28 kg/ha | [14]; 5.6 kg/ha | [26]; 1.12 kg/ha
3 (75-100): [2]; 5.6 kg/ha | [2]; 11.2 kg/ha | [5]; 11.2 kg/ha | [11]; 11.2 kg/ha | [12]; 1.12 kg/ha | [12]; 5.6 kg/ha | [13]; 1.12 kg/ha | [13]; 5.6 kg/ha | [15]; 1.12 kg/ha | [15]; 5.6 kg/ha | [19]; 5.6 kg/ha | [22]; 5.6 kg/ha | [26]; 5.6 kg/ha
1 (25-49): [3]; 5.6 kg/ha | [3]; 11.2 kg/ha | [8]; 5.6 kg/ha | [11]; 5.6 kg/ha | [18]; 5.6 kg/ha | [24]; 0.28 kg/ha | [24]; 5.6 kg/ha | [25]; 0.28 kg/ha | [25]; 5.6 kg/ha
0 (0-24): [1]; 5.6 kg/ha | [1]; 11.2 kg/ha | [4]; 5.6 kg/ha | [4]; 11.2 kg/ha | [5]; 5.6 kg/ha | [6]; 5.6 kg/ha | [6]; 11.2 kg/ha | [7]; 5.6 kg/ha | [7]; 11.2 kg/ha | [9]; 5.6 kg/ha | [9]; 11.2 kg/ha | [10]; 5.6 kg/ha | [10]; 11.2 kg/ha | [13]; 0.28 kg/ha | [14]; 0.28 kg/ha | [14]; 1.12 kg/ha | [15]; 0.28 kg/ha | [16]; 0.28 kg/ha | [16]; 1.12 kg/ha | [16]; 5.6 kg/ha | [17]; 0.28 kg/ha | [17]; 1.12 kg/ha | [17]; 5.6 kg/ha | [18]; 0.28 kg/ha | [18]; 1.12 kg/ha | [19]; 0.28 kg/ha | [19]; 1.12 kg/ha | [20]; 0.28 kg/ha | [20]; 1.12 kg/ha | [20]; 5.6 kg/ha | [21]; 0.28 kg/ha | [21]; 1.12 kg/ha | [21]; 5.6 kg/ha | [22]; 1.12 kg/ha | [23]; 0.28 kg/ha | [23]; 1.12 kg/ha | [23]; 5.6 kg/ha | [24]; 1.12 kg/ha | [25]; 1.12 kg/ha | [26]; 0.28 kg/ha | [27]; 0.28 kg/ha | [27]; 1.12 kg/ha | [27]; 5.6 kg/ha
